# Ends that are not written are not given here.
# Experiments:
# Format in all cases: cell-based
# [1] = tested on: Salmonella enteritidis IFO 3313; settings: IFO 3313, 24 h
# Procedure: (§1) That is, each sample was diluted with a liquid bouillon medium (mfd. by DIFCO, product name “NUTRIENT BROTH Dehydrated”) to a peptide concentration of 500, 250, 125, 62.5, 31.3, 15.6, 7.8, 3.9, 1.9, 1.0 or 0.5 […] and dispensed in 150 μl portions into a 96 well microplate. On the other hand, a cell suspension (about 2×10^6 cells/ml) prepared by statically culturing each strain at 37° C. for 18 hours in LB Broth, Lennox (mfd. by DIFCO) was inoculated into each well of the 96 well microplate in an amount equivalent to that of the drug solution (the aforementioned peptide-containing bouillon medium). After the inoculation, the culturing was started in an incubator of 37° C., and the presence of bacterial growth was examined based on the turbidity after 24 hours. The minimum peptide concentration by which increase in the turbidity due to bacterial growth was not observed at the time of the measurement was defined as the MIC in this Example.
# [2] = tested on: Klebsiella pneumoniae ATCC 4352; settings: ATCC 4352, 24 h
# Procedure: (§2) Escherichia coli IFO 12713 • Escherichia coli 0157:H7 sakai • Klebsiella pneumoniae ATCC 4352 • Pseudomonas aeruginosa ATCC 10145
# as §1
# [3] = tested on: Escherichia coli IFO 12713; settings: IFO 12713, 24 h
# Procedure: as §2, §1
# [4] = tested on: Pseudomonas aeruginosa ATCC 10145; settings: ATCC 10145, 24 h
# Procedure: as §2, §1
# [5] = tested on: Micrococcus luteus IFO 12708; settings: IFO 12708, 24 h
# Procedure: (§3) Gram-Positive Bacteria: • Staphylococcus aureus IFO 12732 • Staphylococcus aureus COL1 (MRSA) • Bacillus cereus IFO 3001 • Bacillus subtilis ATCC 6633 • Micrococcus luteus IFO 12708
# as §1
# [6] = tested on: Bacillus subtilis ATCC 6633; settings: ATCC 6633, 24 h
# Procedure: as §3, §1
# Bacillus cereus IFO 3001 = settings: IFO 3001, 24 h
# Procedure: as §3, §1
# [7] = tested on: Staphylococcus aureus IFO 12732; settings: IFO 12732, 24 h
# Procedure: as §3, §1
# [8] = tested on: Staphylococcus aureus COL1 (MRSA); settings: COL1, 24 h
# Procedure: as §3, §1
Substance,MIC [1] [µg/mL],MIC [2] [µg/mL],MIC [3] [µg/mL],MIC [4] [µg/mL],MIC [5] [µg/mL],MIC [6] [µg/mL],MIC (Bacillus cereus IFO 3001) [µg/mL],MIC [7] [µg/mL],MIC [8] [µg/mL]
"RRRLLRKWWWKRLL-NH2 (C-terminus assumed) [Sample 3, RRRLLRKWWWKRLL]",3.9,3.9,15.6,15.6,7.8,1.95,62.5,1.95,–
"LLRKWWWKRLL-NH2 (C-terminus assumed) [compound 1, LLRKWWWKRLL, reference compound]",15.6,–,–,–,7.8,0.98,62.5,1.95,–
"RRLLRKWWWKRLL-NH2 (C-terminus assumed) [Sample 2, RRLLRKWWWKRLL]",3.9,3.9,7.8,–,3.9,1.95,62.5,1.95,15.6
"RLLRKWWWKRLL-NH2 (C-terminus assumed) [Sample 1, RLLRKWWWKRLL]",3.9,7.8,15.6,15.6,3.9,1.95,62.5,1.95,–

# From US7176276B2, “Antimicrobial peptide and use thereof” (Toagosei Co., Ltd., priority 2003, dated 2007)
